The record followed here is article PMC2847917 (The Journal of General Physiology, 2010).

The target in assay [1] is T1, P2X4 receptor (Mus musculus, UniProt Q9JJX6).
T1 sequence (Q9JJX6 1-388): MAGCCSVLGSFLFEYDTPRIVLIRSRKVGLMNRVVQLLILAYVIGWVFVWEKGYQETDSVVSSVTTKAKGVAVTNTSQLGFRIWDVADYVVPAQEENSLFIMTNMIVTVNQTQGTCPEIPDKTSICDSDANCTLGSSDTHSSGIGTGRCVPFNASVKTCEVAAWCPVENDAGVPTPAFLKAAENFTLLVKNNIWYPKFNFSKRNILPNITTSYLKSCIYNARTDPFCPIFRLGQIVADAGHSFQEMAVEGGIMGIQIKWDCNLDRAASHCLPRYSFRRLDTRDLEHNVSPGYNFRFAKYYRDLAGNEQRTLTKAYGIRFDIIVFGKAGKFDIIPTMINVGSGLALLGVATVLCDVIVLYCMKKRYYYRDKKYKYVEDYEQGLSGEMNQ
Description: whole-cell voltage clamp, agonist-evoked inward current. Format: cell-based.

Assay [2] addresses T1, P2X4 receptor. Description: cell-based.

Molecules are shown by their SMILES. pEC50: −log10 of the molar value.

`Nc1ncnc2c1ncn2[C@@H]1O[C@H](COP(=O)(O)CP(=O)(O)OP(=O)(O)O)[C@@H](O)[C@H]1O` [α,β-Methylene ATP]: the “whole-cell voltage clamp, agonist-evoked inward current (partial agonist)” value in assay [1] is “α,β-Methylene ATP was a partial agonist”. By pEC50 is commonly meant the negative decadic logarithm of the EC50, by convention in mol/L. A high value points to a low EC50. Turning to `Nc1ncnc2c1ncn2[C@@H]1O[C@H](COP(=O)(O)OP(=O)(O)OP(=O)(O)O)[C@@H](O)[C@H]1O` [ATP], the negative logarithm of the EC50 (pEC50) in assay [2] was 4.48.
